Results taken from article PMC5218480 (PLoS ONE, 2017).

System: MV-4-11 cells
Assay: Gene expression microarray analysis (Affymetrix PrimeView) and GSEA
Format: cell-based, human
Design: RFU PODN (11730768_x_at) / Fold change /veh PODN (11730768_x_at) / RFU LINC00158 (11744669_a_at) / Fold change /veh LINC00158 (11744669_a_at) / RFU DUSP10 (11751237_a_at) / Fold change /veh DUSP10 (11751237_a_at) / RFU ID3 (11757404_x_at) / Fold change /veh ID3 (11757404_x_at) / RFU PLEKHG5 (11737974_s_at) / Fold change /veh PLEKHG5 (11737974_s_at) / RFU LRRC4B (11730491_at) / Fold change /veh LRRC4B (11730491_at) / RFU GIMAP4 (11747438_a_at) / Fold change /veh GIMAP4 (11747438_a_at) / RFU KRT8 (11758183_x_at) / Fold change /veh KRT8 (11758183_x_at) / RFU CNN1 (11734310_a_at) / Fold change /veh CNN1 (11734310_a_at) / RFU VPS37D (11726825_at) / Fold change /veh VPS37D (11726825_at) / RFU C10orf10 (11716522_x_at) / Fold change /veh C10orf10 (11716522_x_at) / RFU KIR2DL2 /// KIR2DL4 /// KIR2DL5A /// KIR2DL5B /// KIR2DS1 /// KIR2DS2 /// KIR2DS3 /// KIR2DS4 /// KIR3DL3 /// KIR3DL3 /// KIR3DS1 (11738374_at) / Fold change /veh KIR2DL2 /// KIR2DL4 /// KIR2DL5A /// KIR2DL5B /// KIR2DS1 /// KIR2DS2 /// KIR2DS3 /// KIR2DS4 /// KIR3DL3 /// KIR3DL3 /// KIR3DS1 (11738374_at) / RFU C1QL1 (11718748_at) / Fold change /veh C1QL1 (11718748_at) / RFU TMPRSS4 (11747572_a_at) / Fold change /veh TMPRSS4 (11747572_a_at) / RFU HAMP (11756126_x_at) / Fold change /veh HAMP (11756126_x_at) / RFU RNFT2 (11725882_a_at) / Fold change /veh RNFT2 (11725882_a_at) / RFU NR4A2 (11747474_a_at) / Fold change /veh NR4A2 (11747474_a_at) / RFU ABCC12 (11746883_a_at) / Fold change /veh ABCC12 (11746883_a_at) / RFU TMEM136 (11760407_x_at) / Fold change /veh TMEM136 (11760407_x_at) / RFU CLDN22 /// WWC2 (11732394_at) / Fold change /veh CLDN22 /// WWC2 (11732394_at) / RFU HLA-DPB1 (11760878_x_at) / Fold change /veh HLA-DPB1 (11760878_x_at) / RFU SPINT1 (11716480_a_at) / Fold change /veh SPINT1 (11716480_a_at) / RFU GAP43 (11754022_s_at) / Fold change /veh GAP43 (11754022_s_at) / RFU A4GNT (11735810_at) / Fold change /veh A4GNT (11735810_at) / RFU PRB3 (11715151_x_at) / Fold change /veh PRB3 (11715151_x_at) / RFU TUBB4B (11761932_at) / Fold change /veh TUBB4B (11761932_at) / RFU CAPN14 (11732068_a_at) / Fold change /veh CAPN14 (11732068_a_at) / RFU TMCC2 (11721928_a_at) / Fold change /veh TMCC2 (11721928_a_at) / RFU IRGQ (11745062_a_at) / Fold change /veh IRGQ (11745062_a_at) / RFU FAM174B (11720279_a_at) / Fold change /veh FAM174B (11720279_a_at) / RFU TMPRSS4 (11748680_a_at) / Fold change /veh TMPRSS4 (11748680_a_at) / RFU FAM212B (11763350_a_at) / Fold change /veh FAM212B (11763350_a_at) / RFU PLEKHG5 (11743358_a_at) / Fold change /veh PLEKHG5 (11743358_a_at) / RFU ZSCAN30 (11745921_a_at) / Fold change /veh ZSCAN30 (11745921_a_at) / RFU CMKLR1 (11741424_a_at) / Fold change /veh CMKLR1 (11741424_a_at) / RFU LOC101060620 /// MAPK8IP1 (11723275_at) / Fold change /veh LOC101060620 /// MAPK8IP1 (11723275_at) / RFU SPTSSB (11747773_x_at) / Fold change /veh SPTSSB (11747773_x_at) / RFU PRSS12 (11739890_at) / Fold change /veh PRSS12 (11739890_at) / RFU BIN1 (11741810_x_at) / Fold change /veh BIN1 (11741810_x_at) / RFU WNT11 (11732464_a_at) / Fold change /veh WNT11 (11732464_a_at) / RFU C10orf10 (11716521_a_at) / Fold change /veh C10orf10 (11716521_a_at) / RFU C5orf56 (11738089_at) / Fold change /veh C5orf56 (11738089_at) / RFU CYB561 (11721691_x_at) / Fold change /veh CYB561 (11721691_x_at) / RFU ANKRD19P (11752326_a_at) / Fold change /veh ANKRD19P (11752326_a_at) / RFU OR2T12 /// OR2T33 /// OR2T8 (11738714_s_at) / Fold change /veh OR2T12 /// OR2T33 /// OR2T8 (11738714_s_at) / RFU VCAN (11748164_a_at) / Fold change /veh VCAN (11748164_a_at) / RFU JSRP1 (11732532_at) / Fold change /veh JSRP1 (11732532_at) / RFU KRTAP10-11 (11738290_x_at) / Fold change /veh KRTAP10-11 (11738290_x_at) / RFU MYO3A (11730013_a_at) / Fold change /veh MYO3A (11730013_a_at) / RFU EBF3 (11725865_a_at) / Fold change /veh EBF3 (11725865_a_at) / RFU CAMK2N1 (11719241_x_at) / Fold change /veh CAMK2N1 (11719241_x_at) / RFU C5orf56 (11738088_a_at) / Fold change /veh C5orf56 (11738088_a_at) / RFU OLFML3 (11715873_a_at) / Fold change /veh OLFML3 (11715873_a_at) / RFU LOC100653217 /// NTM (11731650_a_at) / Fold change /veh LOC100653217 /// NTM (11731650_a_at) / RFU MAPK11 (11762145_a_at) / Fold change /veh MAPK11 (11762145_a_at) / RFU FIZ1 (11724087_x_at) / Fold change /veh FIZ1 (11724087_x_at) / RFU OASL (11726364_x_at) / Fold change /veh OASL (11726364_x_at) / RFU SOX15 (11748057_x_at) / Fold change /veh SOX15 (11748057_x_at) / RFU CD79A (11719716_a_at) / Fold change /veh CD79A (11719716_a_at) / RFU HIST1H1D (11736915_at) / Fold change /veh HIST1H1D (11736915_at) / RFU CASKIN2 (11723855_a_at) / Fold change /veh CASKIN2 (11723855_a_at) / RFU LOC730098 (11760151_x_at) / Fold change /veh LOC730098 (11760151_x_at) / RFU OR4N2 (11742367_at) / Fold change /veh OR4N2 (11742367_at) / RFU PRRT2 (11749266_a_at) / Fold change /veh PRRT2 (11749266_a_at) / RFU SNX32 (11753110_a_at) / Fold change /veh SNX32 (11753110_a_at) / RFU CDHR5 (11726645_a_at) / Fold change /veh CDHR5 (11726645_a_at) / RFU RCAN1 (11760418_a_at) / Fold change /veh RCAN1 (11760418_a_at) / RFU FAM167A (11723789_a_at) / Fold change /veh FAM167A (11723789_a_at) / RFU FAM26E (11764081_at) / Fold change /veh FAM26E (11764081_at) / RFU ISYNA1 (11749810_s_at) / Fold change /veh ISYNA1 (11749810_s_at) / RFU ACY1 (11761880_at) / Fold change /veh ACY1 (11761880_at) / RFU 11764098_at / Fold change /veh 11764098_at / RFU SAMD14 (11745864_x_at) / Fold change /veh SAMD14 (11745864_x_at) / RFU NPB (11741838_a_at) / Fold change /veh NPB (11741838_a_at) / RFU TMPRSS6 (11731388_a_at) / Fold change /veh TMPRSS6 (11731388_a_at) / RFU KRTAP10-2 (11738614_at) / Fold change /veh KRTAP10-2 (11738614_at) / RFU ARHGAP8 /// PRR5-ARHGAP8 (11727945_x_at) / Fold change /veh ARHGAP8 /// PRR5-ARHGAP8 (11727945_x_at) / RFU KRTAP5-7 /// NADSYN1 (11734609_at) / Fold change /veh KRTAP5-7 /// NADSYN1 (11734609_at) / RFU RASL12 (11751679_a_at) / Fold change /veh RASL12 (11751679_a_at) / RFU CDKN2B (11736163_a_at) / Fold change /veh CDKN2B (11736163_a_at) / RFU PRF1 (11729649_at) / Fold change /veh PRF1 (11729649_at) / RFU, ZNF638 /// ZNF638-IT1 / Fold change vs veh, ZNF638 /// ZNF638-IT1 / RFU, PANK3 / Fold change vs veh, PANK3 / RFU, SH3YL1 / Fold change vs veh, SH3YL1 / RFU, ZEB2 / Fold change vs veh, ZEB2 / RFU, NRIP1 / Fold change vs veh, NRIP1 / RFU, PTTG1IP / Fold change vs veh, PTTG1IP / RFU, CAPN2 / Fold change vs veh, CAPN2 / RFU, MED14 / Fold change vs veh, MED14 / RFU, SNORA58 / Fold change vs veh, SNORA58 / RFU, C1orf63 / Fold change vs veh, C1orf63 / RFU, LRRFIP1 / Fold change vs veh, LRRFIP1 / RFU, NDUFAF7 / Fold change vs veh, NDUFAF7 / RFU, SLC12A2 / Fold change vs veh, SLC12A2 / RFU, IBTK / Fold change vs veh, IBTK / RFU, ESF1 / Fold change vs veh, ESF1 / Fold change vs veh, TMEM50B / RFU, TAOK1 / Fold change vs veh, TAOK1 / RFU, ACBD3 / Fold change vs veh, ACBD3 / RFU, TMA16 / Fold change vs veh, TMA16 / RFU, RWDD3 / Fold change vs veh, RWDD3 / RFU, BCAT1 / Fold change vs veh, BCAT1 / RFU, EDEM3 / Fold change vs veh, EDEM3 / RFU, TMEM33 / Fold change vs veh, TMEM33 / RFU, WDR75 / Fold change vs veh, WDR75 / RFU, AHCTF1 / Fold change vs veh, AHCTF1 / RFU, TFRC / Fold change vs veh, TFRC / RFU, ZDHHC17 / Fold change vs veh, ZDHHC17 / RFU, NOM1 / Fold change vs veh, NOM1 / RFU, ARL8B / Fold change vs veh, ARL8B / RFU, ZBTB11 / Fold change vs veh, ZBTB11 / RFU, TAMM41 / Fold change vs veh, TAMM41 / RFU, KIAA1704 /// LOC100996395 / Fold change vs veh, KIAA1704 /// LOC100996395 / RFU, ING1 / Fold change vs veh, ING1 / RFU, TRMT61B / Fold change vs veh, TRMT61B / RFU, FUBP3 / Fold change vs veh, FUBP3 / RFU, TP53 / Fold change vs veh, TP53 / RFU, TNKS2 / Fold change vs veh, TNKS2 / RFU, ZFP14 / Fold change vs veh, ZFP14 / RFU, ACTR2 / Fold change vs veh, ACTR2 / RFU, PPP3R1 / Fold change vs veh, PPP3R1 / RFU, PIK3R1 / Fold change vs veh, PIK3R1 / RFU, HNRNPA1 / Fold change vs veh, HNRNPA1 / RFU, RNF170 / Fold change vs veh, RNF170 / RFU, ZNF28 / Fold change vs veh, ZNF28 / RFU, RNGTT / Fold change vs veh, RNGTT / RFU, OGT / Fold change vs veh, OGT / RFU, BRD1 / Fold change vs veh, BRD1 / RFU, MARS / Fold change vs veh, MARS / RFU, ZNF655 / Fold change vs veh, ZNF655 / RFU, FAHD1 / Fold change vs veh, FAHD1 / RFU, BDP1 / Fold change vs veh, BDP1 / RFU, LRRCC1 / Fold change vs veh, LRRCC1 / RFU, ARID1A / Fold change vs veh, ARID1A / RFU, ZNF146 / Fold change vs veh, ZNF146 / RFU, ZNF330 / Fold change vs veh, ZNF330 / RFU, GPN3 / Fold change vs veh, GPN3 / RFU, C9orf123 / Fold change vs veh, C9orf123 / RFU, N4BP2L2 / Fold change vs veh, N4BP2L2 / RFU, ARFIP1 / Fold change vs veh, ARFIP1 / RFU, FAM179B / Fold change vs veh, FAM179B / RFU, BCL10 / Fold change vs veh, BCL10 / RFU, UHRF1BP1L / Fold change vs veh, UHRF1BP1L / RFU, BET1 / Fold change vs veh, BET1 / RFU, CNOT2 / Fold change vs veh, CNOT2 / RFU, ZNF268 / Fold change vs veh, ZNF268 / Fold change vs veh, ZNF507 / RFU, DGCR2 / Fold change vs veh, DGCR2 / RFU, WDSUB1 / Fold change vs veh, WDSUB1 / Fold change vs veh, HSP90B1 /// MIR3652 / RFU, ADSS / Fold change vs veh, ADSS / RFU, GK / Fold change vs veh, GK / RFU, ZNF148 / Fold change vs veh, ZNF148 / RFU, TAF9 / Fold change vs veh, TAF9 / RFU, SLC1A5 / Fold change vs veh, SLC1A5 / RFU, SLMO2 / Fold change vs veh, SLMO2 / RFU, ABCC4 / Fold change vs veh, ABCC4 / RFU, LOC101060439 /// RAP1B / Fold change vs veh, LOC101060439 /// RAP1B / RFU, RFX7 / Fold change vs veh, RFX7 / RFU, GTPBP10 / Fold change vs veh, GTPBP10 / RFU, CNEP1R1 / Fold change vs veh, CNEP1R1 / RFU, BIVM-ERCC5 /// ERCC5 / Fold change vs veh, BIVM-ERCC5 /// ERCC5 / RFU, ILF3 / Fold change vs veh, ILF3 / RFU 11762660_at / Fold change /veh 11762660_at / RFU VCAN (11757783_s_at) / Fold change /veh VCAN (11757783_s_at) / RFU DDX43 (11728927_at) / Fold change /veh DDX43 (11728927_at) / RFU KRT8 (11758188_x_at) / Fold change /veh KRT8 (11758188_x_at) / RFU NKD1 (11759106_at) / Fold change /veh NKD1 (11759106_at) / RFU SRD5A1 (11742802_a_at) / Fold change /veh SRD5A1 (11742802_a_at) / RFU TPSAB1 /// TPSB2 (11721975_s_at) / Fold change /veh TPSAB1 /// TPSB2 (11721975_s_at) / RFU GSTM3 (11746129_a_at) / Fold change /veh GSTM3 (11746129_a_at) / RFU IL23R (11737362_x_at) / Fold change /veh IL23R (11737362_x_at) / RFU TMEM51 (11727254_a_at) / Fold change /veh TMEM51 (11727254_a_at) / RFU PIWIL2 (11732686_x_at) / Fold change /veh PIWIL2 (11732686_x_at) / RFU ORM1 (11744905_x_at) / Fold change /veh ORM1 (11744905_x_at) / RFU CCDC152 (11743942_at) / Fold change /veh CCDC152 (11743942_at) / RFU ECM1 (11717891_a_at) / Fold change /veh ECM1 (11717891_a_at) / RFU IL23R (11748794_a_at) / Fold change /veh IL23R (11748794_a_at) / RFU TNFAIP8L3 (11732012_x_at) / Fold change /veh TNFAIP8L3 (11732012_x_at) / RFU MBOAT4 (11741988_at) / Fold change /veh MBOAT4 (11741988_at) / RFU 11764193_at / Fold change /veh 11764193_at / RFU TMEM53 (11763286_at) / Fold change /veh TMEM53 (11763286_at) / RFU MAGEB2 (11727129_at) / Fold change /veh MAGEB2 (11727129_at) / RFU TMEM200A (11744735_a_at) / Fold change /veh TMEM200A (11744735_a_at) / RFU CCDC152 (11751479_a_at) / Fold change /veh CCDC152 (11751479_a_at) / RFU FAM211A (11726209_a_at) / Fold change /veh FAM211A (11726209_a_at) / RFU RGS16 (11746705_a_at) / Fold change /veh RGS16 (11746705_a_at) / RFU VCAN (11755009_s_at) / Fold change /veh VCAN (11755009_s_at) / RFU RHOB (11743442_s_at) / Fold change /veh RHOB (11743442_s_at) / RFU RGS16 (11720943_a_at) / Fold change /veh RGS16 (11720943_a_at) / RFU RGS16 (11720944_at) / Fold change /veh RGS16 (11720944_at) / RFU, VPS4B / Fold change vs veh, VPS4B / RFU, CREB1 / Fold change vs veh, CREB1 / RFU, DNAJC13 / Fold change vs veh, DNAJC13 / RFU, GNAQ / Fold change vs veh, GNAQ / RFU, CDK5R1 / Fold change vs veh, CDK5R1 / RFU, ZRANB3 / Fold change vs veh, ZRANB3 / RFU, CUL4A / Fold change vs veh, CUL4A / RFU, CCNY / Fold change vs veh, CCNY / RFU, UFL1 / Fold change vs veh, UFL1 / RFU, COG3 / Fold change vs veh, COG3 / RFU, DIAPH2 / Fold change vs veh, DIAPH2 / RFU, SKA2 / Fold change vs veh, SKA2 / RFU, AFF3 / Fold change vs veh, AFF3 / RFU, LMF1 / Fold change vs veh, LMF1 / RFU, IPO11 / Fold change vs veh, IPO11 / RFU, DFFB / Fold change vs veh, DFFB / RFU, FOXP1 / Fold change vs veh, FOXP1 / RFU, CARD8 / Fold change vs veh, CARD8 / RFU, STRN3 / Fold change vs veh, STRN3 / RFU, ADK / Fold change vs veh, ADK / RFU, RASSF2 / Fold change vs veh, RASSF2 / RFU, WIPF1 / Fold change vs veh, WIPF1 / RFU, LARP1B / Fold change vs veh, LARP1B / RFU, RASA1 / Fold change vs veh, RASA1 / RFU, RB1 / Fold change vs veh, RB1 / RFU, PPFIA1 / Fold change vs veh, PPFIA1 / RFU, MAT2A / Fold change vs veh, MAT2A / RFU, CCT5 / Fold change vs veh, CCT5 / RFU, WDR92 / Fold change vs veh, WDR92 / RFU, CUX1 / Fold change vs veh, CUX1 / RFU, TTC7A / Fold change vs veh, TTC7A / RFU, TMEM135 / Fold change vs veh, TMEM135 / RFU, DEPTOR / Fold change vs veh, DEPTOR / RFU, CPM / Fold change vs veh, CPM / RFU, DNAJB6 / Fold change vs veh, DNAJB6 / RFU, CACNA2D3 / Fold change vs veh, CACNA2D3 / RFU, DTX4 / Fold change vs veh, DTX4 / RFU, TFCP2 / Fold change vs veh, TFCP2 / RFU, GMCL1 /// GMCL1P1 / Fold change vs veh, GMCL1 /// GMCL1P1 / RFU, AEBP2 / Fold change vs veh, AEBP2 / RFU, SNHG1 /// SNORD22 /// SNORD25 /// SNORD26 /// SNORD27 /// SNORD28 /// SNORD29 /// SNORD31 / Fold change vs veh, SNHG1 /// SNORD22 /// SNORD25 /// SNORD26 /// SNORD27 /// SNORD28 /// SNORD29 /// SNORD31 / Fold change (Aza/veh), C12orf56 (ProbeSet 11735607_a_at) / Fold change (ACY-1035/veh), C12orf56 (ProbeSet 11735607_a_at) / Fold change (Aza/veh), FGFR1OP (ProbeSet 11751329_s_at) / Fold change (ACY-1035/veh), FGFR1OP (ProbeSet 11751329_s_at) / Fold change (Aza/veh), VPS36 (ProbeSet 11739960_a_at) / Fold change (ACY-1035/veh), VPS36 (ProbeSet 11739960_a_at) / RFU SYPL1 (11715823_x_at) / Fold change /veh SYPL1 (11715823_x_at) / RFU IGFBP7 (11715501_s_at) / Fold change /veh IGFBP7 (11715501_s_at) / RFU REEP3 (11722064_at) / Fold change /veh REEP3 (11722064_at) / RFU IGLL1 (11728026_x_at) / Fold change /veh IGLL1 (11728026_x_at): dose or concentration left out as unconfirmed
Details: ProbeSet 11725902_s_at; LIST D

Nc1ncn([C@@H]2O[C@H](CO)[C@@H](O)[C@H]2O)c(=O)n1 [azacitidine]
RFU, TMEM135: 62.37 RFU
